Data as given in ChEMBL document CHEMBL1201862, “PubChem BioAssay data set” (2004).
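Cells were grown in 96-well plates and exposed to each compound for 48 hours at five concentrations; endpoints were interpolated linearly between bracketing concentrations, or set to the highest concentration if not reached. Here, GI50 denotes the concentration required for 50% inhibition of growth.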 Calls of active or inactive are those of the source. Cut-off read from the data, not from the text of the source: active = GI50 up to about 1.1 µM and inactive = higher.

What was measured:
Experiment in all cases: NCI-60 cell line screen, 48 h
786-0 = test system: 786-0
A498 = test system: A498
A549 = test system: A549
ACHN = test system: ACHN
BT-549 = test system: BT-549
CAKI-1 = test system: CAKI-1
CCRF-CEM = test system: CCRF-CEM
COLO 205 = test system: COLO 205
DU-145 = test system: DU-145
EKVX = test system: EKVX
HCC 2998 = test system: HCC 2998
HCT-116 = test system: HCT-116
HCT-15 = test system: HCT-15
HL-60 = test system: HL-60
HOP-62 = test system: HOP-62
HOP-92 = test system: HOP-92
HT-29 = test system: HT-29
Hs-578T = test system: Hs-578T
IGROV-1 = test system: IGROV-1
K562 = test system: K562
KM12 = test system: KM12
LOX IMVI = test system: LOX IMVI
M14 = test system: M14
MCF7 = test system: MCF7
MDA-MB-231 = test system: MDA-MB-231
MDA-MB-435 = test system: MDA-MB-435
MDA-N = test system: MDA-N
MOLT-4 = test system: MOLT-4
Malme-3M = test system: Malme-3M
NCI-H23 = test system: NCI-H23
NCI-H460 = test system: NCI-H460
NCI-H522 = test system: NCI-H522
NCI/ADR-RES = test system: NCI/ADR-RES
OVCAR-3 = test system: OVCAR-3
OVCAR-5 = test system: OVCAR-5
OVCAR-8 = test system: OVCAR-8
PC-3 = test system: PC-3
RPMI-8226 = test system: RPMI-8226
RXF 393 = test system: RXF 393
SF-268 = test system: SF-268
SF-295 = test system: SF-295
SK-MEL-28 = test system: SK-MEL-28
SK-MEL-2 = test system: SK-MEL-2
SK-MEL-5 = test system: SK-MEL-5
SK-OV-3 = test system: SK-OV-3
SN12C = test system: SN12C
SNB-19 = test system: SNB-19
SNB-75 = test system: SNB-75
SR = test system: SR
SW-620 = test system: SW-620
T47D = test system: T47D
TK-10 = test system: TK-10
U-251 = test system: U-251
UACC-257 = test system: UACC-257
UACC-62 = test system: UACC-62
UO-31 = test system: UO-31
NCI-H226 = test system: NCI-H226
OVCAR-4 = test system: OVCAR-4
SF-539 = test system: SF-539

Measured: GI50

COC1(c2ccccc2)N=C(S)NN=C1c1ccccc1 (configuration not stated)
24.3 µM: HCT-15
inactive: 786-0 41.7 µM | A498 > 100 µM | A549 45.2 µM | ACHN > 100 µM | BT-549 28.2 µM | CAKI-1 73.8 µM | CCRF-CEM 28.2 µM | COLO 205 21.9 µM | DU-145 32.8 µM | EKVX 89.9 µM | HCC 2998 19.2 µM | HCT-116 35.5 µM | HL-60 21 µM | HOP-62 44.8 µM | HOP-92 > 100 µM | HT-29 44.2 µM | Hs-578T 42.4 µM | IGROV-1 34.8 µM | K562 33.4 µM | KM12 39.8 µM | LOX IMVI 36.1 µM | M14 27.5 µM | MCF7 38 µM | MDA-MB-231 27.5 µM | MDA-MB-435 19.5 µM | MDA-N 21.5 µM | MOLT-4 35.4 µM | Malme-3M 60.4 µM | NCI-H23 36.6 µM | NCI-H460 27.5 µM | NCI-H522 24.9 µM | NCI/ADR-RES 19.1 µM | OVCAR-3 30.9 µM | OVCAR-5 78.2 µM | OVCAR-8 29.3 µM | PC-3 31.4 µM | RPMI-8226 38.9 µM | RXF 393 63.4 µM | SF-268 37.2 µM | SF-295 30.5 µM | SK-MEL-28 85.1 µM | SK-MEL-2 27.9 µM | SK-MEL-5 29.5 µM | SK-OV-3 26.7 µM | SN12C 21 µM | SNB-19 54.2 µM | SNB-75 38.5 µM | SR 29.4 µM | SW-620 38.6 µM | T47D 33.5 µM | TK-10 48.2 µM | U-251 21.2 µM | UACC-257 49.1 µM | UACC-62 51.4 µM | UO-31 > 100 µM

CCCNCC(O)CNc1ccc(NCC(O)CNCCC)c2c1C(=O)c1ccccc1C2=O (configuration not stated)
43.9 µM: HCT-15
inactive: 786-0 2.03 µM | A498 11.7 µM | A549 1.81 µM | ACHN 8.83 µM | BT-549 2.14 µM | CAKI-1 12.6 µM | COLO 205 2.31 µM | DU-145 6.22 µM | EKVX 7.73 µM | HCC 2998 1.38 µM | HCT-116 2.56 µM | HL-60 2.52 µM | HOP-62 1.82 µM | HOP-92 2.07 µM | HT-29 2.17 µM | Hs-578T 3.61 µM | IGROV-1 2.04 µM | K562 2.14 µM | KM12 3.41 µM | LOX IMVI 1.44 µM | M14 3.33 µM | MCF7 2.54 µM | MDA-MB-231 2.98 µM | MDA-MB-435 2.81 µM | MDA-N 2.74 µM | MOLT-4 1.26 µM | Malme-3M 2.7 µM | NCI-H226 2 µM | NCI-H23 3.24 µM | NCI-H460 2.42 µM | NCI-H522 1.21 µM | NCI/ADR-RES > 75 µM | OVCAR-3 4.37 µM | OVCAR-4 3.07 µM | OVCAR-5 1.61 µM | OVCAR-8 2.26 µM | PC-3 1.95 µM | RPMI-8226 1.69 µM | SF-268 2.03 µM | SF-539 1.71 µM | SK-MEL-28 2.96 µM | SK-MEL-2 2.16 µM | SK-MEL-5 2.69 µM | SK-OV-3 2.04 µM | SN12C 1.78 µM | SNB-19 1.95 µM | SNB-75 2.29 µM | SR 2.42 µM | SW-620 2.05 µM | T47D 4.02 µM | TK-10 10.6 µM | U-251 2.57 µM | UACC-257 7.85 µM | UACC-62 1.9 µM | UO-31 12.6 µM
active: CCRF-CEM 0.998 µM

CSc1c(C#N)c(O)n(-c2ccc(Cl)cc2)c(=O)c1C#N
97.9 µM: HCT-15
inactive: 786-0 > 100 µM | A498 45.2 µM | A549 80.4 µM | BT-549 > 100 µM | CAKI-1 49.4 µM | COLO 205 > 100 µM | DU-145 > 100 µM | EKVX > 100 µM | HCC 2998 > 100 µM | HCT-116 63.5 µM | HL-60 28.1 µM | HOP-92 30.8 µM | HT-29 > 100 µM | Hs-578T > 100 µM | IGROV-1 > 100 µM | K562 35.6 µM | KM12 36 µM | LOX IMVI 14 µM | M14 > 100 µM | MCF7 64.6 µM | MDA-MB-231 > 100 µM | MDA-MB-435 > 100 µM | MDA-N > 100 µM | MOLT-4 76.4 µM | Malme-3M > 100 µM | NCI-H226 48.1 µM | NCI-H23 91.2 µM | NCI-H460 > 100 µM | NCI-H522 40.5 µM | NCI/ADR-RES 77.3 µM | OVCAR-3 > 100 µM | OVCAR-4 > 100 µM | OVCAR-5 > 100 µM | OVCAR-8 > 100 µM | PC-3 > 100 µM | RPMI-8226 39.5 µM | RXF 393 > 100 µM | SF-268 > 100 µM | SF-539 > 100 µM | SK-MEL-28 > 100 µM | SK-MEL-2 > 100 µM | SK-MEL-5 > 100 µM | SK-OV-3 > 100 µM | SN12C > 100 µM | SNB-19 > 100 µM | SNB-75 > 100 µM | SR > 100 µM | SW-620 61 µM | T47D 64.9 µM | TK-10 > 100 µM | U-251 > 100 µM | UACC-257 > 100 µM | UACC-62 44.6 µM | UO-31 72.9 µM

CC1(C)CCCCCC(C)(CCCCCCCCCCCO)C1=O (configuration not stated)
16.1 µM: HCT-15
inactive: 786-0 16.2 µM | A498 17.9 µM | A549 15.1 µM | ACHN 12.8 µM | BT-549 18.9 µM | CAKI-1 15.1 µM | CCRF-CEM 13 µM | COLO 205 17.1 µM | DU-145 17.7 µM | EKVX 17.6 µM | HCC 2998 24.3 µM | HCT-116 15.3 µM | HL-60 14.7 µM | HOP-62 17.7 µM | HOP-92 17.3 µM | HT-29 11.9 µM | Hs-578T 16.3 µM | IGROV-1 18.2 µM | K562 15.3 µM | KM12 18.1 µM | LOX IMVI 15.4 µM | MCF7 16.1 µM | MDA-MB-231 16.3 µM | MDA-MB-435 16.6 µM | MDA-N 17.9 µM | MOLT-4 19.5 µM | Malme-3M 16 µM | NCI-H226 17.1 µM | NCI-H23 16.6 µM | NCI-H460 17.1 µM | NCI-H522 17.3 µM | NCI/ADR-RES 14 µM | OVCAR-3 16 µM | OVCAR-4 15.5 µM | OVCAR-5 17.2 µM | OVCAR-8 16.9 µM | PC-3 16.1 µM | RPMI-8226 20.9 µM | RXF 393 16.9 µM | SF-268 16.1 µM | SF-295 15.7 µM | SF-539 16.7 µM | SK-MEL-28 17.9 µM | SK-MEL-2 16.2 µM | SK-MEL-5 16.7 µM | SK-OV-3 17.6 µM | SN12C 16.1 µM | SNB-19 17.2 µM | SNB-75 16.3 µM | SR 1.41 µM | SW-620 18.4 µM | T47D 14.6 µM | TK-10 12.1 µM | U-251 17 µM | UACC-257 14 µM | UACC-62 15.5 µM | UO-31 17 µM

COc1cc(NCc2ccc3n2-c2ccccc2OC3)cc(OC)c1OC
inactive: 786-0 47.1 µM | A498 13.5 µM | A549 17.6 µM | ACHN 30.1 µM | BT-549 24.2 µM | CAKI-1 27 µM | CCRF-CEM 12.6 µM | COLO 205 12.9 µM | DU-145 72.1 µM | EKVX 9.71 µM | HCC 2998 16.1 µM | HCT-116 27.8 µM | HL-60 17.7 µM | HOP-62 43.5 µM | HOP-92 11 µM | HT-29 35.5 µM | Hs-578T 35.4 µM | IGROV-1 14 µM | K562 8.36 µM | KM12 40.7 µM | LOX IMVI 10.4 µM | M14 31 µM | MCF7 14.1 µM | MDA-MB-231 14.4 µM | MDA-MB-435 14 µM | MDA-N 21.1 µM | Malme-3M 15.1 µM | NCI-H226 28.8 µM | NCI-H23 35.2 µM | NCI-H460 30.1 µM | NCI-H522 12.7 µM | NCI/ADR-RES 4.25 µM | OVCAR-3 28.6 µM | OVCAR-4 16.1 µM | OVCAR-5 46.5 µM | OVCAR-8 31 µM | PC-3 22.8 µM | RPMI-8226 7.89 µM | RXF 393 24.6 µM | SF-268 46.5 µM | SF-295 23.8 µM | SK-MEL-28 38.3 µM | SK-MEL-2 20 µM | SK-MEL-5 15.6 µM | SN12C 17.5 µM | SNB-19 69 µM | SNB-75 23.8 µM | SR 11.8 µM | SW-620 35.6 µM | T47D 37.2 µM | TK-10 32.5 µM | U-251 18.4 µM | UACC-257 20.1 µM | UACC-62 19 µM | UO-31 16.8 µM
29.9 µM: HCT-15
